Data reported in the supplement of paper PMC10307832.

Compound: C1=CC2=C(C=CC(=C2)C=C3C(=O)NC(=NCC4=CC=CS4)S3)N=C1 [RO-3306]
Test: relative viability (nuclei count vs DMSO), 5 days (fraction); higher = more cells survive
Procedure, shortened: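 Five library-drug doses spaced by √10 were pinned onto vehicle-anchored 1536-well plates of lung cancer cell lines that had been kept overnight at 37 °C. Cells went 5 days without medium change, then were fixed, permeabilised and Hoechst-stained together, imaged at 4× and counted by MetaXpress. Viability is the ratio of treated-well to vehicle-well nuclei, taken as a median over plates. Plates required control CV below 25% and at least one doubling.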

Cell Line	relative viability (0.01 µM)	relative viability (0.03162 µM)	relative viability (0.1 µM)	relative viability (0.3162 µM)	relative viability (1 µM)
H3255	1.02	0.913	0.995	0.946	0.93
ABC-1	0.94	0.769	0.901	0.887	0.817
LXF-289	1.01	1	1.01	1.02	1
NCI-H1975	1.09	0.804	0.869	0.997	0.91
LCLC-97TM1	0.895	0.799	0.932	1.04	0.942
IA-LM	1.05	0.683	0.89	1.05	0.869
HCC-15	1.13	0.897	0.998	1.07	0.992
NCI-H647	0.881	0.841	0.928	1.07	0.864
NCI-H1993	0.808	0.719	0.893	0.849	0.941
COR-L23	1.03	0.892	1.04	1.04	1.14
NCI-H1915	1.05	0.944	0.98	0.992	0.536
NCI-H1703	1.17	0.837	0.969	0.751	0.906
NCI-H727	0.892	0.704	1.01	1	1.2
LC-2-ad	0.955	0.85	0.929	1.02	0.95
NCI-H2009	1.03	0.955	0.983	1.02	1
A-427	1.06	0.94	1	1.02	0.574
SK-MES-1	1.07	0.963	1.02	1.08	1.08
NCI-H1734	1.01	0.808	0.912	0.991	0.9
LOU-NH91	0.931	0.914	0.934	0.918	0.852
LCLC-103H	1.01	0.935	1.02	0.998	0.923
NCI-H522	1.09	0.867	0.827	0.875	0.962
NCI-H1651	0.978	0.875	0.994	1.03	0.934
NCI-H23	0.958	0.715	0.837	1.03	1.02
NCI-H322M	0.86	0.908	0.854	0.954	1.01
HCC-44	0.985	1	1.02	0.957	0.901
NCI-H1648	0.863	–	0.877	0.858	1.01
UMC-11	1.09	0.855	0.969	1.05	0.828

Cell Line	relative viability (0.01 µM)	relative viability (0.03162 µM)	relative viability (0.1 µM)	relative viability (0.3162 µM)	relative viability (1 µM)
NCI-H596	0.947	0.807	0.871	1.03	0.94
NCI-H650	0.834	0.803	0.938	0.992	0.945
NCI-H2228	1.07	0.96	1.09	1	0.696
NCI-H661	0.995	0.951	0.978	0.963	1.06
A549	1.13	0.811	0.994	1	1.05
EMC-BAC-2	0.943	0.844	0.915	1.12	0.616
NCI-H2085	0.985	0.936	0.98	1.05	0.995
RERF-LC-KJ	1.07	0.86	0.983	1.04	1.01
NCI-H3122	1.05	0.99	1.01	1.05	1.04
CAL-12T	1.01	0.884	0.906	0.977	1.07
NCI-H2023	1.18	0.803	0.901	1	0.858
NCI-H1792	0.813	–	0.824	0.908	0.782
NCI-H1944	1.08	0.911	0.917	1.01	0.929
NCI-H1299	1.06	1	1.03	1.04	1.09
HCC-78	1.09	0.878	0.981	1.02	0.924
PC-3 [JPC-3]	1.03	0.929	1.03	1.01	1.06
NCI-H2126	1.01	0.916	0.988	1.03	0.938
LK-2	1.07	0.855	0.922	1.17	1.02
NCI-H460	1.05	0.956	0.983	1.02	1.04
HCC-827	1.02	0.955	1.03	1.03	1.06
NCI-H838	1.03	0.908	0.992	1.07	0.95
SW 1573	1.02	0.781	0.945	1.05	0.979
NCI-H2347	1.19	0.882	1.05	1	1
HARA	0.96	0.909	0.886	0.985	1.03
NCI-H1355	1.12	0.907	1.01	1.01	0.914
Calu-6	1.12	0.893	1.02	1	1.06
NCI-H1395	0.895	0.869	0.729	0.887	0.707

Cell Line	relative viability (0.01 µM)	relative viability (0.03162 µM)	relative viability (0.1 µM)	relative viability (0.3162 µM)	relative viability (1 µM)
NCI-H1563	0.966	0.887	0.936	0.993	0.953
NCI-H1437	1.03	0.942	0.926	1.03	1.08
NCI-H358	1.13	0.779	0.902	0.947	0.766
HOP-62	1.09	0.966	1.06	1.01	1.07
EKVX	1	0.888	1	1.03	0.915
NCI-H1666	0.962	0.904	0.938	0.941	0.885
NCI-H2170	1.06	0.946	0.952	1.01	0.991
201T	1.06	0.969	0.956	0.987	0.746
NCI-H2342	1.02	0.865	0.941	0.914	0.932
COR-L 105	0.859	0.784	0.798	0.906	0.948
NCI-H1755	1.02	1	0.98	0.985	1.02
NCI-H520	1.05	0.834	1.01	1.04	0.957
NCI-H1650	0.885	0.729	0.795	0.881	0.728
NCI-H1793	1.09	0.694	0.865	0.993	1.12
SK-LU-1	1.08	0.924	1.07	1.01	0.995
NCI-H441	1.09	0.795	1.11	1.13	1.04
SW 900	0.917	0.697	0.705	0.943	0.785
EBC-1	1.04	0.807	1.01	1.14	1.01
EPLC-272H	0.866	0.73	0.921	0.901	0.791
HCC-366	1.12	0.951	0.966	1.09	1.06
PC-14	1.05	0.836	1.05	1.05	0.926
LU99A	0.983	0.831	0.876	0.912	0.817
ChaGo-K-1	1.03	0.933	1.01	1.04	0.699
NCI-H2087	1.11	0.918	1.1	1.04	0.991
BEN	0.903	0.888	0.894	1.03	0.976
NCI-H2405	1	0.949	0.995	1.02	0.906
